Source: patent US20240269298A1, “PHOSPHONYL DERIVATIVE, AND COMPOSITION AND PHARMACEUTICAL APPLICATION THEREOF” (XIZANG HAISCO PHARMACEUTICAL CO., LTD., priority 2021, published 2024)
Like-named read-outs stand apart in the source and are kept apart here.

Legend:
[1] = test system: NCI-H1975 (EGFR-L858R-T790M) cells; assay: Inhibitory activity on proliferation of NCI-H1975 (EGFR-L858R-T790M) cells (CTG, 72 h); type: cell-based; conditions: Homo sapiens
Outline: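 IC50 values come from S-shaped dose-survival fits of CTG signal expressed as % of vehicle. Compound exposure lasted 72 h at 37 °C with 0.1% DMSO; seeding was 3000 A431 cells/well in DMEM+10% FBS and 1000 NCI-H1975 cells/well in RPMI1640+10% FBS.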

A431 (EGFR-WT) cells = assay: Inhibitory activity on proliferation of A431 (EGFR-WT) cells (CTG, 72 h); type: cell-based; conditions: Homo sapiens, A-431
Experimental: NCI-H1975 (EGFR-L858R-T790M) and A431 (EGFR-WT) cells were purchased from ATCC and cultured in an incubator at 37° C. with 5% CO2, and the culture mediums were RPMI1640+10% FBS and DMEM+10% FBS, respectively. On the first day, NCI-H1975 (EGFR-L858R-T790M) and A431 (EGFR-WT) cells in the logarithmic phase were collected, and viable cells were counted using an automatic cell analyzer (countstar). The cell suspensions were adjusted with the culture mediums and plated on a 96-well cell culture plate at 1000 cells/well for NCI-H1975 (EGFR-L858R-T790M) cells and at 3000 cells/well for A431 cells. The next day, the culture mediums were aspirated, and 90 μL of fresh culture mediums and 10 μL of the compounds at different concentrations were added to each well, wherein the final concentration of DMSO in each well was 0.1%. The plate was cultured in the incubator at 37° C. with 5% CO2 for 72 hours. After 72 hours of drug treatment, 50 μL of CTG solution (promega, G7572), which was already pre-melted and equilibrated to room temperature, was added to each well, and the mixtures were uniformly mixed for 2 min using a microplate shaker. The plate was placed at room temperature for 10 min, and then […] signal values were measured using a microplate reader (PHERAstar FSX).
Surviving cells % was calculated based on Vsample/Vvehicle control×100%, wherein Vsample was the readout of the drug-treated group, and Vvehicle control was the average value of the vehicle control group. Using the origin 9.2 software and nonlinear regression model, S-shaped dose-survival curves were plotted, and IC50 values were calculated.

[2] = read-out: IC50 (value in brackets)

Structure (SMILES)	IC50 ([1]; read-out: IC50 (class symbol)) [nM]	IC50 [1, 2] [nM]	IC50 (A431 (EGFR-WT) cells) [nM]
COc1cc(N2CCC(CN3CCC4(CCCN(c5cc6c(cc5F)C(=O)N(C5CCC(=O)NC5=O)C6=O)C4)CC3)CC2)c(-c2cnn(C)c2)cc1Nc1ncc(Br)c(Nc2ccc(-c3ccccc3)cc2P(C)(C)=O)n1 (stereo not drawn) [Compound 61, 5-(9-((1-(4-((5-bromo-4-((3-(dimethylphosphoryl)-[1,1′-biphenyl]-4-yl)amino)pyrimidin-2-yl)amino)-5-methoxy-2-(1-methyl-1H-pyrazol-4-yl)phenyl)piperidin-4-yl)methyl)-2,9-diazaspiro[5.5]undecan-2-yl)-2-(2,6-dioxopiperidin-3-yl)-6-fluoroisoindoline-1,3-dione]	100 to 500	176	≥ 10000
COc1cc(N2CCC(C3CCN(C4CC5(CCN(c6ccc7c(c6)C(=O)N(C6CCC(=O)NC6=O)C7=O)CC5)C4)CC3)CC2)c(-c2cnn(C)c2)cc1Nc1ncc(Cl)c(Nc2ccc3nccnc3c2P(C)(C)=O)n1 (stereo not drawn) [Trifluoroacetate of compound 14, 5-(2-(1′-(4-((5-chloro-4-((5-(dimethylphosphoryl)quinoxalin-6-yl)amino)pyrimidin-2-yl)amino)-5-methoxy-2-(1-methyl-1H-pyrazol-4-yl)phenyl)-[4,4′-bipiperidin]-1-yl)-7-azaspiro[3.5]nonan-7-yl)-2-(2,6-dioxopiperidin-3-yl)isoindoline-1,3-dione]	< 100	49	≥ 10000
COc1cc(N2CCC(C3CCN(CC4CCN(c5ccc6c(c5)C(=O)N(C5CCC(=O)NC5=O)C6=O)CC4)CC3)CC2)c(-c2cnn(C)c2)cc1Nc1ncc(Cl)c(Nc2ccc(-c3ccccc3)cc2P(C)(C)=O)n1 (stereo not drawn) [Compound 41, 5-(4-((1′-(4-((5-chloro-4-((3-(dimethylphosphoryl)-[1,1′-biphenyl]-4-yl)amino)pyrimidin-2-yl)amino)-5-methoxy-2-(1-methyl-1H-pyrazol-4-yl)phenyl)-[4,4′-bipiperidin]-1-yl)methyl)piperidin-1-yl)-2-(2,6-dioxopiperidin-3-yl)isoindoline-1,3-dione]	100 to 500	353	≥ 10000
COc1cc(N2CCC3(CCC(N4CCN(c5ccc6c(c5)C(=O)N(C5CCC(=O)NC5=O)C6=O)CC4)CC3)CC2)c(-c2cnn(C)c2)cc1Nc1ncc(Br)c(Nc2ccc(-c3ccccc3)cc2P(C)(C)=O)n1 (stereo not drawn) [Compound 82, 5-(4-(3-(4-((5-bromo-4-((3-(dimethylphosphoryl)-[1,1′-biphenyl]-4-yl)amino)pyrimidin-2-yl)amino)-5-methoxy-2-(1-methyl-1H-pyrazol-4-yl)phenyl)-3-azaspiro[5.5]undecan-9-yl)piperazin-1-yl)-2-(2,6-dioxopiperidin-3-yl)isoindoline-1,3-dione]	< 100	90	≥ 10000
COc1cc(N2CCN(C3CN(c4ccc5c(c4)C(=O)N(C4CCC(=O)NC4=O)C5=O)C3)CC2)c(-c2cnn(C)c2)cc1Nc1ncc(Cl)c(Nc2ccc(C3CC3)cc2P(C)(C)=O)n1 (stereo not drawn) [Compound 148, 5-(3-(4-(4-((5-chloro-4-((4-cyclopropyl-2-(dimethylphosphoryl)phenyl)amino)pyrimidin-2-yl)amino)-5-methoxy-2-(1-methyl-1H-pyrazol-4-yl)phenyl)piperazin-1-yl)azetidin-1-yl)-2-(2,6-dioxopiperidin-3-yl)isoindoline-1,3-dione]	< 100	79	≥ 10000
COc1cc(N2CCC(N3CCN(CC4CCN(c5ccc6c(c5)C(=O)N(C5CCC(=O)NC5=O)C6=O)C4)CC3)CC2)c(C2CC2)cc1Nc1ncc(Br)c(Nc2ccc3nccnc3c2P(C)(C)=O)n1 (stereo not drawn) [Compound 35, 5-(3-((4-(1-(4-((5-bromo-4-((5-(dimethylphosphoryl)quinoxalin-6-yl)amino)pyrimidin-2-yl)amino)-2-cyclopropyl-5-methoxyphenyl)piperidin-4-yl)piperazin-1-yl)methyl)pyrrolidin-1-yl)-2-(2,6-dioxopiperidin-3-yl)isoindoline-1,3-dione]	100 to 500	114	≥ 10000
COc1cc(N2CCC(C(=O)N3CCN(c4ccc5c(c4)C(=O)N(C4CCC(=O)NC4=O)C5=O)CC3)CC2)c(-c2cnn(C)c2)cc1Nc1ncc(Br)c(Nc2ccccc2P(C)(C)=O)n1 (stereo not drawn) [Compound 146, 5-(4-(1-(4-((5-bromo-4-((2-(dimethylphosphoryl)phenyl)amino)pyrimidin-2-yl)amino)-5-methoxy-2-(1-methyl-1H-pyrazol-4-yl)phenyl)piperidine-4-carbonyl)piperazin-1-yl)-2-(2,6-dioxopiperidin-3-yl)isoindoline-1,3-dione]	< 100	95	≥ 10000
COc1cc(N2CCN(C3CCN(CC4CCN(c5cc6c(cc5F)C(=O)N(C5CCC(=O)NC5=O)C6=O)CC4)CC3)CC2)c(-c2cnn(C)c2)cc1Nc1ncc(Br)c(Nc2ccc(-c3ccccc3)cc2P(C)(C)=O)n1 (stereo not drawn) [Compound 46, 5-(4-((4-(4-(4-((5-bromo-4-((3-(dimethylphosphoryl)-[1,1′-biphenyl]-4-yl)amino)pyrimidin-2-yl)amino)-5-methoxy-2-(1-methyl-1H-pyrazol-4-yl)phenyl)piperazin-1-yl)piperidin-1-yl)methyl)piperidin-1-yl)-2-(2,6-dioxopiperidin-3-yl)-6-fluoroisoindoline-1,3-dione]	< 100	71	≥ 10000
COc1cc(N2CCC(CN3CC4CN(c5ccc6c(c5)C(=O)N(C5CCC(=O)NC5=O)C6=O)CC4C3)CC2)c(-c2cnn(C)c2)cc1Nc1ncc(Br)c(Nc2ccc(-c3ccccc3)cc2P(C)(C)=O)n1 (stereo not drawn) [Compound 78, 5-(5-((1-(4-((5-bromo-4-((3-(dimethylphosphoryl)-[1,1′-biphenyl]-4-yl)amino)pyrimidin-2-yl)amino)-5-methoxy-2-(1-methyl-1H-pyrazol-4-yl)phenyl)piperidin-4-yl)methyl)hexahydropyrrolo[3,4-c]pyrrol-2(1H)-yl)-2-(2,6-dioxopiperidin-3-yl)isoindoline-1,3-dione]	< 100	51	≥ 10000
COc1cc(N2CCC(N3CCN(CC4CCN(c5ccc6c(c5)C(=O)N(C5CCC(=O)NC5=O)C6=O)CC4)CC3)CC2)c(-c2cnn(C)c2)cc1Nc1ncc(Cl)c(Nc2ccc3nccnc3c2P(C)(C)=O)n1 (stereo not drawn) [Compound 4, 5-(4-((4-(1-(4-((5-chloro-4-((5-(dimethylphosphoryl)quinoxalin-6-yl)amino)pyrimidin-2-yl)amino)-5-methoxy-2-(1-methyl-1H-pyrazol-4-yl)phenyl)piperidin-4-yl)piperazin-1-yl)methyl)piperidin-1-yl)-2-(2,6-dioxopiperidin-3-yl)isoindoline-1,3-dione]	< 100	21	≥ 10000
COc1cc(N2CCC3(CCN(c4ccc5c(c4)C(=O)N(C4CCC(=O)NC4=O)C5=O)CC3)CC2)c(-c2cnn(C)c2)cc1Nc1ncc(Br)c(Nc2ccc(-c3ccccc3)cc2P(C)(C)=O)n1 (stereo not drawn) [Compound 79, 5-(9-(4-((5-bromo-4-((3-(dimethylphosphoryl)-[1,1′-biphenyl]-4-yl)amino)pyrimidin-2-yl)amino)-5-methoxy-2-(1-methyl-1H-pyrazol-4-yl)phenyl)-3,9-diazaspiro[5.5]undecan-3-yl)-2-(2,6-dioxopiperidin-3-yl)isoindoline-1,3-dione]	100 to 500	314	≥ 10000
COc1cc(N2CCC(CN3CCN(c4ccc5c(c4)C(=O)N([C@@H]4CCC(=O)NC4=O)C5=O)CC3)CC2)c(-c2cnn(C)c2)cc1Nc1ncc(Br)c(Nc2ccc(C3CC3)cc2P(C)(C)=O)n1 [Compound 171]	< 100	77	≥ 10000
COc1cc(N2CCC3(CCN(c4ccc5c(c4)C(=O)N(C4CCC(=O)NC4=O)C5=O)CC3)CC2)c(-c2cnn(C)c2)cc1Nc1ncc(Cl)c(Nc2ccc(F)cc2P(C)(C)=O)n1 (stereo not drawn) [Compound 162, 5-(9-(4-((5-chloro-4-((2-(dimethylphosphoryl)-4-fluorophenyl)amino)pyrimidin-2-yl)amino)-5-methoxy-2-(1-methyl-1H-pyrazol-4-yl)phenyl)-3,9-diazaspiro[5.5]undecan-3-yl)-2-(2,6-dioxopiperidin-3-yl)isoindoline-1,3-dione]	100 to 500	134	≥ 10000
COc1cc(N2CCC(N3CCN(CC4(F)CCN(c5ccc6c(c5)C(=O)N(C5CCC(=O)NC5=O)C6=O)CC4)CC3)CC2)c(-c2cnn(C)c2)cc1Nc1ncc(Br)c(Nc2ccc(-c3ccccc3)cc2P(C)(C)=O)n1 (stereo not drawn) [Trifluoroacetate of compound 86, 5-(4-((4-(1-(4-((5-bromo-4-((3-(dimethylphosphoryl)-[1,1′-biphenyl]-4-yl)amino)pyrimidin-2-yl)amino)-5-methoxy-2-(1-methyl-1H-pyrazol-4-yl)phenyl)piperidin-4-yl)piperazin-1-yl)methyl)-4-fluoropiperidin-1-yl)-2-(2,6-dioxopiperidin-3-yl)isoindoline-1,3-dione]	< 100	77	≥ 10000
